Measurements taken from PMC4336630 (Molecular cell, 2015).
Entries after “also recorded” stand apart in the source; their conditions may differ.

Experiments:
[1] = test system: Nc1nc2c(ncn2[C@@H]2O[C@H](COP(=O)(O)O)[C@@H](O)[C@H]2O)c(=O)[nH]1; assay: purified protein, by the assay type; conditions: 25.0 °C
S. aureus GMK [2] = molecular target: T1, S. aureus GMK (Staphylococcus aureus, UniProt P99176); assay: biochemical
E. coli GMK [3] = molecular target: T2, E. coli GMK (Escherichia coli, UniProt P60546); assay type: biochemical
S. aureus GMK [4] = molecular target: T1, S. aureus GMK
E. coli GMK [5] = molecular target: T2, E. coli GMK; assay type: binding
[6] = test system: chimeric E. coli GMKs with S. aureus lid domains; assay type: biochemical
D. radiodurans GMK [7] = molecular target: T3, D. radiodurans GMK (Deinococcus radiodurans, UniProt Q9RS38); assay: biochemical
B. anthracis GMK [8] = molecular target: T4, B. anthracis GMK (Bacillus anthracis, UniProt Q81WG7); assay: biochemical
S. coelicolor GMK [9] = molecular target: T5, S. coelicolor GMK (Streptomyces coelicolor, UniProt Q9KXS0)
[10] = test system: Klebsiella pneumoniae GMK; assay type: biochemical
S. meliloti GMK [11] = molecular target: T6, S. meliloti GMK (Sinorhizobium meliloti, UniProt Q92QZ2)
T. thermophilus GMK [12] = molecular target: T7, T. thermophilus GMK (Thermus thermophilus, UniProt Q5SI18); assay: biochemical
E. faecalis GMK-2 [13] = molecular target: T8, E. faecalis GMK-2 (Enterococcus faecalis, UniProt Q831B6); assay type: biochemical
E. faecalis GMK-1 = E. faecalis GMK-1 (Enterococcus faecalis, UniProt Q82ZD5); assay type: biochemical
M. tuberculosis GMK = M. tuberculosis GMK (Mycobacterium tuberculosis, UniProt P9WKE9); assay type: biochemical
[14] = test system: Chimeric S. aureus GMKs with E. coli lid domains; assay type: biochemical
T. thermophilus GMK [15] = molecular target: T7, T. thermophilus GMK
B. subtilis GMK [16] = molecular target: T9, B. subtilis GMK (Bacillus subtilis, UniProt O34328); assay type: binding
Pseudomonas syringae GMK = assay type: biochemical
B. subtilis GMK Y77F = B. subtilis GMK Y77F (Bacillus subtilis, UniProt O34328, Y77F); assay type: biochemical
Coxiella burnetii GMK = Coxiella burnetii GMK (Coxiella burnetii, UniProt Q83EL7); assay type: biochemical
S. mutans GMK [17] = molecular target: T10, S. mutans GMK (Streptococcus mutans serotype c, UniProt Q8DVK6)
S. mutans GMK [18] = molecular target: T10, S. mutans GMK; assay: biochemical
D. radiodurans GMK [19] = molecular target: T3, D. radiodurans GMK
[20] = test system: Yersinia enterocolitica GMK; assay type: biochemical
C. gilvus GMK [21] = molecular target: T11, C. gilvus GMK (Cellulomonas gilvus, UniProt F8A6C8)
L. monocytogenes GMK [22] = molecular target: T12, L. monocytogenes GMK (Listeria monocytogenes serovar 1/2a, UniProt Q8Y672)
S. coelicolor GMK [23] = molecular target: T5, S. coelicolor GMK; assay: biochemical
A. tumefaciens GMK = A. tumefaciens GMK (Agrobacterium tumefaciens, UniProt Q8UGD7); assay type: biochemical
B. anthracis GMK [24] = molecular target: T4, B. anthracis GMK
E. faecalis GMK-2 [25] = molecular target: T8, E. faecalis GMK-2; conditions: cited from earlier work
S. meliloti GMK [26] = molecular target: T6, S. meliloti GMK; assay: biochemical
C. gilvus GMK [27] = molecular target: T11, C. gilvus GMK; assay: biochemical
[28] = test system: GMK of Rhodobacter sphaeroides; assay type: biochemical
[29] = test system: Neisseria meningitidis GMK; assay type: biochemical
L. monocytogenes GMK [30] = molecular target: T12, L. monocytogenes GMK; assay: biochemical
T. thermophilus IMPDH = conditions: cited from earlier work
B. subtilis GMK [31] = molecular target: T9, B. subtilis GMK
B. subtilis GMK [32] = molecular target: T9, B. subtilis GMK; assay: biochemical

Compound “S. coelicolor GMK (Streptomyces coelicolor A3(2))” has a Km [1] of 29.7 ± 3.4 µM and a kcat [1] of 25.5 ± 0.7 s⁻¹.
Work on “S. mutans GMK (Streptococcus mutans UA159)” yielded a Km [1] of 147.4 ± 68.6 µM and a kcat [1] of 68.9 ± 24.8 s⁻¹.
Work on B. anthracis GMK (Bacillus anthracis) yielded a Km [1] of 78.1 ± 39.7 µM and a kcat [1] of 57.6 ± 21.9 s⁻¹.
For `Nc1nc2c(ncn2[C@@H]2O[C@H](COP(=O)(O)OP(=O)(O)O)[C@@H](OP(=O)(O)OP(=O)(O)O)[C@H]2O)c(=O)[nH]1` [ppGpp, guanosine tetraphosphate], the Ki (S. aureus GMK [2]) was 8.2 µM, the “Inhibition of GMK activity (sensitivity)” value (E. coli GMK [3]) was “resistant” and the Mode of inhibition (S. aureus GMK [4]) was “competitively inhibits”.
In the case of “L. monocytogenes GMK (Listeria monocytogenes EGD-e)”, the Km [1] is reported as 84.7 ± 14.2 µM and the kcat [1] is reported as 54.9 ± 5.6 s⁻¹.
“T. thermophilus GMK (Thermus thermophilus HB8)” showed a Km [1] of 17.5 ± 4.1 µM and a kcat [1] of 4.8 ± 0.4 s⁻¹.
“S. meliloti GMK (Sinorhizobium meliloti 1021)” showed a Km [1] of 14.1 ± 1.3 µM and a kcat [1] of 19.5 ± 0.3 s⁻¹.
With `Nc1nc2c(ncn2[C@@H]2O[C@H](COP(=O)(O)OP(=O)(O)OP(=O)(O)O)[C@@H](OP(=O)(O)OP(=O)(O)O)[C@H]2O)c(=O)[nH]1` [pppGpp, guanosine pentaphosphate] the “Binding by ITC” value (E. coli GMK [5]) was “not observed”, the “Inhibition of GMK activity (sensitivity)” value [6] was “still resistant” and the Ki (D. radiodurans GMK [7]) was 1.6 ± 0.4 µM. The IC50 (B. anthracis GMK [8]) was about 120 µM, the Ki (B. anthracis GMK [8]) was 42.5 ± 7.3 µM and the Mode of inhibition (S. coelicolor GMK [9]) was “competitively inhibited and Comp”. The “Inhibition of GMK activity (sensitivity)” value [10] was “completely resistant”, the Mode of inhibition (S. meliloti GMK [11]) was “modestly and competitively inhibited and Comp” and the Ki (T. thermophilus GMK [12]) was 2.9 ± 0.5 µM. For the same compound, the Ki (E. faecalis GMK-2 [13]) was 355 ± 26 µM, the Mode of inhibition (E. faecalis GMK-2 [13]) was “noncompetitively inhibited; also recorded: Noncomp” and the Mode of inhibition (E. faecalis GMK-1) was “Comp”. For the same compound, the “Inhibition of GMK activity (sensitivity)” value (M. tuberculosis GMK) was “insensitive”, the IC50 (S. aureus GMK [2]) was 9 to 24 µM and the Ki (S. aureus GMK [2]) was 7 µM. For the same compound, the “Inhibition of GMK activity (sensitivity)” value [14] was “more resistant”, the Mode of inhibition (T. thermophilus GMK [15]) was “strongly and competitively inhibited and Comp” and the “Complex formation (binding) by ITC” value (B. subtilis GMK [16]) was “detected”. The “Inhibition of GMK activity (sensitivity)” value (Pseudomonas syringae GMK) was “completely resistant”, the “Ki of the variant (in words)” value (B. subtilis GMK Y77F) was “increased Ki to a level comparable to that of B. anthracis GMK” and the “Inhibition of GMK activity (sensitivity)” value (Coxiella burnetii GMK) was “completely resistant”. For the same compound, the Mode of inhibition (S. mutans GMK [17]) was “Comp”, the “Inhibition of GMK activity (sensitivity)” value (E. coli GMK [3]) was “completely resistant” and the IC50 (S. mutans GMK [18]) was 9 to 24 µM. For the same compound, the Ki (S. mutans GMK [18]) was 16.6 ± 2.4 µM, the Mode of inhibition (D. radiodurans GMK [19]) was “strongly and competitively inhibited and Comp” and the “Inhibition of GMK activity (sensitivity)” value [20] was “completely resistant”. The Mode of inhibition (C. gilvus GMK [21]) was “competitively inhibited and Comp”, the Mode of inhibition (L. monocytogenes GMK [22]) was “Comp” and the Ki (S. coelicolor GMK [23]) was 61.5 ± 9.6 µM. For the same compound, the Ki (A. tumefaciens GMK) was 53.5 ± 8.9 µM, the Mode of inhibition (A. tumefaciens GMK) was “modestly and competitively inhibited and Comp” and the Mode of inhibition (B. anthracis GMK [24]) was “Comp”. For the same compound, the IC50 (E. faecalis GMK-2 [25]) was about 460 µM, the Ki (S. meliloti GMK [26]) was 81.6 ± 11.8 µM and the Ki (C. gilvus GMK [27]) was 1.7 ± 0.5 µM. The “Inhibition of GMK activity (sensitivity)” value [28] was “resistant”, the “Inhibition of GMK activity (sensitivity)” value [29] was “completely resistant” and the IC50 (L. monocytogenes GMK [30]) was 9 to 24 µM. For the same compound, the Ki (L. monocytogenes GMK [30]) was 12 ± 1.1 µM, the Ki (T. thermophilus IMPDH) was about 11 µM and the Mode of inhibition (B. subtilis GMK [31]) was “Comp”. For the same compound, the IC50 (B. subtilis GMK [32]) was about 16 µM and the Mode of inhibition (S. aureus GMK [4]) was “competitively inhibits and Comp”.
Work on “C. gilvus GMK (Cellulomonas gilvus ATCC 13127)” yielded a Km [1] of 22.5 ± 7.3 µM and a kcat [1] of 25 ± 2.7 s⁻¹.
“D. radiodurans GMK (Deinococcus radiodurans R1 = ATCC 13939 = DSM 20539)” showed a Km [1] of 17.8 ± 5.4 µM and a kcat [1] of 44.5 ± 4.4 s⁻¹.
Compound “S. aureus GMK (Staphylococcus aureus subsp. aureus N315)” has a Km [1] of 35.1 ± 7.1 µM and a kcat [1] of 72.9 ± 7.2 s⁻¹.
“B. subtilis GMK (Bacillus subtilis subsp. subtilis str. 168)” gave a Km [1] of 24.6 ± 3.4 µM and a kcat [1] of 23 ± 1 s⁻¹.
